Measured values reported in patent US20240374738A1, “BIFUNCTIONAL COMPOUND CAPABLE OF DEGRADING RECEPTOR TYROSINE KINASE AND APPLICATION THEREOF” (TAIBIDI PHARMACEUTICAL TECHNOLOGY (SHIJIAZHUANG) CO., LTD., priority 2023, published 2024).

Tests used:
Assay type in all cases: cell-based
DDR1 = DDR1 (Homo sapiens, UniProt Q08345); assay: Degradation of DDR1 in tumor cell MKN45 (Western blot); design: The degradation activity of the compounds against DDR1 in the MKN45 cell line; endogenous in cells; host or cells: MKN45; conditions: MKN-45, maximum degradation percentage, MKN45 cells, 24 hours
DDR1, sequence (Q08345 19-913): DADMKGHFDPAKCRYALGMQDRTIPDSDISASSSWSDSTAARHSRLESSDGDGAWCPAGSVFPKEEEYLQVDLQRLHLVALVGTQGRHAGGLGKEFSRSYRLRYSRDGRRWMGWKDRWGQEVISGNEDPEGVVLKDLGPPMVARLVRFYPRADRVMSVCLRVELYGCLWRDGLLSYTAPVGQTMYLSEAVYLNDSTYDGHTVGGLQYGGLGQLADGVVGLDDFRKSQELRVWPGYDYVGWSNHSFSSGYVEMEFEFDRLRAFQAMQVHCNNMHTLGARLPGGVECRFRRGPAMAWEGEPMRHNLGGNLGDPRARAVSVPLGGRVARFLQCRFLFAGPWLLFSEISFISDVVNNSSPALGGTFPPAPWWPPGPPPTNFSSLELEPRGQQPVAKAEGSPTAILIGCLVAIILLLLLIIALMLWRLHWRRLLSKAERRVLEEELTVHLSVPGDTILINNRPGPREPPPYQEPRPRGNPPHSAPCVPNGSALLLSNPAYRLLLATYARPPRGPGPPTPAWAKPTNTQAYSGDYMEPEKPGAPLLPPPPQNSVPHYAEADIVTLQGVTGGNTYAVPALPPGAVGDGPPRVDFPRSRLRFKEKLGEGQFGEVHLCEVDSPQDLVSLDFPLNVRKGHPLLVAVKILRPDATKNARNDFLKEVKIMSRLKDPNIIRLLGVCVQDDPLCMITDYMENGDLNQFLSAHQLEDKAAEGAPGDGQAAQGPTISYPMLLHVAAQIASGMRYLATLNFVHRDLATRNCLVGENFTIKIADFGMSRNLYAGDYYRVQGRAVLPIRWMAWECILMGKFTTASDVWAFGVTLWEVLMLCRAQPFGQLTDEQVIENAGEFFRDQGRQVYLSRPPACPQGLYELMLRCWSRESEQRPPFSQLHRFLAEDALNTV
Protocol: Western blot experiment: Take gastric cancer cells (MKN45) and inoculate them into a 6-well plate at a concentration of […], adding 2 ml to each well and incubating for 24 hours.
The next day, observe the cells under a microscope to confirm their status. Prepare compounds, weigh a certain amount of the series compounds or reference drug cabozantinib from this patent, first prepare a high concentration mother liquor with pure DMSO, and use gradient dilution method to prepare compound concentrations of 2 mM, 200 μM, 100 μM, 20 μM, 2 μM, 200 nM, and 0 nM. The final concentration of DMSO is 0.5%. Shake to thoroughly mix. Add 10 μl of solution to each well. After incubation for 24 hours, remove the cells and use a pipette to aspirate the suspended cells into a 1.5 ml centrifuge tube. Centrifuge at 5000 rpm for 10 minutes to precipitate the cells. Carefully remove the cell precipitate from the culture medium, add 1 ml of PBS and shake slightly. After repeated cleaning for 3 times, dry the residue. Add 150 μl of RIPA lysate pre mixed with 1% PMSF, blow to allow the lysate to fully contact the cells, and incubate on ice for 10 minutes. Centrifuge at 12000 rpm for 10 minutes, extract the supernatant, use the BCA protein quantification kit to determine and homogenize the sample loading.
Mix BCA-A in a 50:1 ratio Prepare working solution with B solution, dilute the sample by 5 times, then pipette 20 μl onto a 96 well ELISA plate. Add 200 μl of pre mixed BCA working solution and incubate at 37° C. for 20 minutes. Measure the A562 nm absorbance value using an ELISA reader and substitute it into the protein standard curve formula to obtain the sample concentration. After calculating the required volume for loading […] of sample, divide the sample into 1.5 ml centrifuge tubes. Add 10 μl of sample buffer to each tube and mix well. Heat in a 95° C. metal bath for 5 minutes to denature the protein.
Take 4-20% gradient pre adhesive and fix it on the adhesive rack. Add electrophoresis solution to the slot and remove the comb, Marker and protein samples were loaded, and after 30 minutes of electrophoresis at 80V, the voltage was adjusted to 120V for electrophoresis, The marker band stops electrophoresis at the forefront of the gel. Take out the adhesive block and cut it to the appropriate size, The PVDF membrane was cut and activated in methanol, and after activation, the PVDF membrane was equilibrated in a membrane transfer equilibrium solution for 1 minute. Using sponge pads The sequence of PVDF film, adhesive, and sponge pad is placed in the splint and placed in the eBlot equipment for rapid wet rotation. Remove the membrane and seal it in 5% skim milk powder dissolved in 1×TBST for 1 hour. Cut the membrane according to the molecular weight of the target protein and internal reference protein, and place it in primary antibody diluted with 1×TBST. Shake overnight at 4° C.
The next day, transfer the band to 1×TBST for 3 washes, then add a specific dilution of the secondary antibody and shake it for 1.5 hours. Transfer the band again to 1×TBST for 3 washes, prepare ECL color solution, place the membrane in the imaging system, cover the surface with ECL color solution, and take photos of the membrane using the imaging system.
Using the SHST analysis system to analyze the results, measure the grayscale values of each band of the target protein and internal reference protein. Normalize the grayscale values of the target protein/corresponding lane GAPDH grayscale values, and perform quantitative analysis according to the protein amount=experimental group grayscale value/blank control group grayscale value.
The activity of the compound of the present invention in degrading DDR in tumor cell line MKN45 was measured. […]

SNU5 = assay: Growth inhibition of gastric cancer cells SNU5 (CCK-8); conditions: Homo sapiens, SNU-5, half inhibitory concentration, 72 hours
Protocol: (§1) Inoculate gastric cancer cells (SNU5 or MKN45) into a 96 well plate at a concentration of […], with 100 μl added to each well. Incubate for 30 minutes. Observe the cell status under a microscope. Prepare compounds, weigh a certain amount of the series compounds or reference drug cabozantinib of this patent, first prepare a high concentration mother liquor with pure DMSO, and use gradient dilution method to prepare a concentration of 200 μM, 60 μM, 20 μM, 6 μM, 2 μM, 600 nM, 200 nM, 0 nM drug solution, shake to make it fully mixed. The control group was prepared with cabozantinib using the same solvent and method.
(§2) After preparation, add 1 μl of drug solution to each well of the 96 well plate, and then add 100 μl of culture medium. Repeat each dose three times. Gently shake to allow the cells and medication to come into full contact and incubate in the incubator for 72 hours. 72 hours later, remove and color with CCK-8 reagent kit. Add 20 μl of CCK-8 reagent to each well, gently shake well, and incubate in the incubator for 1 hour. After 1 hour, remove and measure the absorbance of each well using an enzyme-linked immunosorbent assay (ELISA) reader at a wavelength of 450 nm.
(§3) According to the formula: Cell growth inhibition rate=[1−(absorbance of experimental group absorbance of culture medium control group)/(absorbance of blank control group−absorbance of culture medium control group)]×100%. It can be concluded that the compound has the ability to inhibit the growth of gastric cancer cells at the current dose and time.
(§4) Draw a graph based on the gradient of concentration and use GraphPad Prism 9 software (GraphPad Software, La Jolla, CA) to calculate the maximum inhibitory concentration (IC50) at 50%.
(§5) Referring to steps 1 and 2 of this embodiment, the inhibitory effect of the compound of the present invention on the growth of cancer cells and the degradation effect of target proteins were measured, and the following results were obtained (see Table 2 below).
(§6) The growth inhibitory effects of the compound of the present invention on tumor cell lines MKN45 and SNU5 were measured. The activity is expressed as half inhibitory concentration (C50). The results are shown in Table 2 below; When the half inhibitory concentration is less than or equal to 100 nM, the compound activity is labeled as “++++”; When the half inhibitory concentration is greater than 100 nM and less than 500 nM, the compound activity is labeled as […] and less than 1000 nM, the compound activity is labeled as “++”; When the half inhibitory concentration is greater than 1000 nM and less than 3000 nM, the compound activity is marked as “+”; When the half inhibitory concentration is greater than 3000 nM, the compound activity is marked as […]

MKN45 = assay: Growth inhibition of gastric cancer cells MKN45 (CCK-8); conditions: Homo sapiens, MKN-45, half inhibitory concentration, 72 hours
Protocol: as §1, §2, §3, §4, §5, §6

Row | Structure (SMILES) | Dmax (DDR1) | IC50 (SNU5) | IC50 (MKN45)
1 | COc1cc2c(Oc3ccc(NC(=O)C4(C(=O)Nc5ccc(F)cc5)CC4)cc3)ccnc2cc1N1CCC(CN2CCN(CCNc3cccc4c3C(=O)N(C3CCC(=O)NC3=O)C4=O)CC2)CC1 (stereo not drawn) [TPD5972] | > 85% | ≤ 100 nM | ≤ 100 nM
2 | O=C1CCC(N2C(=O)c3ccc(N4CCN(CCC5CCN(CCNC(=O)c6ccc(-c7cnc8ncc(Cc9ccc%10ncccc%10c9)n8n7)cc6F)CC5)CC4)cc3C2=O)C(=O)N1 (stereo not drawn) [TPD7022] | 65 to 75% | 100 to 500 nM | 100 to 500 nM
3 | CNC(=O)c1ccc(-c2cnc3ncc(Cc4ccc5ncc(NC(=O)CN6CCC(CN7CCN(c8ccc9c(c8)C(=O)N(C8CCC(=O)NC8=O)C9=O)CC7)CC6)cc5c4)n3n2)cc1F (stereo not drawn) [TPD7026] | 65 to 75% | ≤ 100 nM | ≤ 100 nM
4 | Cc1ncsc1-c1ccc(CNC(=O)[C@@H]2C[C@@H](O)CN2C(=O)[C@@H](NC(=O)CN2CCN(CC3CCN(C(=O)c4ccc(-c5cnc6ncc(Cc7ccc8ncccc8c7)n6n5)cc4F)CC3)CC2)C(C)(C)C)cc1 [TPD9004] | 75 to 85% | ≤ 100 nM | 100 to 500 nM
5 | CNC(=O)c1ccc(-c2cnc3ncc(Cc4ccc5ncc(C(=O)N6CCC(CN7CCN(CC(=O)N[C@H](C(=O)N8C[C@H](O)C[C@H]8C(=O)NCc8ccc(-c9scnc9C)cc8)C(C)(C)C)CC7)CC6)cc5c4)n3n2)cc1F [TPD9006] | 75 to 85% | 100 to 500 nM | ≤ 100 nM
6 | Cc1ncsc1-c1ccc(CNC(=O)[C@@H]2C[C@@H](O)CN2C(=O)[C@@H](NC(=O)CCN2CCC(COc3cnc(-c4cccc(Cn5nc(-c6cccc(C#N)c6)ccc5=O)c4)nc3)CC2)C(C)(C)C)cc1 [TPD10001] | 65 to 75% | 100 to 500 nM | 500 to 1000 nM
7 | N#Cc1cccc(-c2ccc(=O)n(Cc3cccc(-c4ncc(OCC5CCN(CCC(=O)Nc6cccc7c6CN(C6CCC(=O)NC6=O)C7=O)CC5)cn4)c3)n2)c1 (stereo not drawn) [TPD10013] | 65 to 75% | 500 to 1000 nM | 1000 to 3000 nM
8 | C[C@@H](Oc1cc(-c2cnn(C3CCN(CCC(=O)Nc4cccc5c4CN(C4CCC(=O)NC4=O)C5=O)CC3)c2)cnc1N)c1c(Cl)ccc(F)c1Cl (stereo partly drawn) [TPD10040] | 75 to 85% | ≤ 100 nM | ≤ 100 nM
9 | C[C@@H](Oc1cc(-c2cnn(C3CCN(CCN4CCN(c5ccc6c(c5)C(=O)N(C5CCC(=O)NC5=O)C6=O)CC4)CC3)c2)cnc1N)c1c(Cl)ccc(F)c1Cl (stereo partly drawn) [TPD10041] | > 85% | ≤ 100 nM | 500 to 1000 nM
10 | Cc1nc(CCOC2CCN(CCC(=O)Nc3cccc4c3CN(C3CCC(=O)NC3=O)C4=O)CC2)cc(Nc2ncc(C(=O)Nc3c(C)cccc3Cl)s2)n1 (stereo not drawn) [TPD10050] | 75 to 85% | 100 to 500 nM | 500 to 1000 nM
11 | Cc1nc(CCN2CCC(CN3CCN(c4ccc5c(c4)C(=O)N(C4CCC(=O)NC4=O)C5=O)CC3)CC2)cc(Nc2ncc(C(=O)Nc3c(C)cccc3Cl)s2)n1 (stereo not drawn) [TPD10051] | > 85% | 500 to 1000 nM | ≤ 100 nM
12 | COc1cc2c(Oc3ccc(NC(=O)C4(C(=O)Nc5ccc(F)cc5)CC4)cc3)ccnc2cc1N1CCC(CN2CCN(CCNc3nccc4c3CN(C3CCC(=O)NC3=O)C4=O)CC2)CC1 (stereo not drawn) [TPD12001] | 65 to 75% | ≤ 100 nM | ≤ 100 nM
13 | COc1cc2c(Oc3ccc(NC(=O)C4(C(=O)Nc5ccc(F)cc5)CC4)cc3)ccnc2cc1N1CCC(CN2CCN(CCNc3cc4c(cn3)C(=O)N(C3CCC(=O)NC3=O)C4)CC2)CC1 (stereo not drawn) [TPD12003] | 75 to 85% | ≤ 100 nM | ≤ 100 nM
14 | COc1cc2c(Oc3ccc(NC(=O)C4(C(=O)Nc5ccc(F)cc5)CC4)cc3)ccnc2cc1N1CCC(CN2CCN(CCNc3cc4c(cn3)CN(C3CCC(=O)NC3=O)C4=O)CC2)CC1 (stereo not drawn) [TPD12009] | 65 to 75% | ≤ 100 nM | ≤ 100 nM
15 | COc1cc2c(Oc3ccc(NC(=O)C4(C(=O)Nc5ccc(F)cc5)CC4)cc3)ccnc2cc1N1CCC(CN2CCN(CCNc3ccc4c(n3)C(=O)N(C3CCC(=O)NC3=O)C4)CC2)CC1 (stereo not drawn) [TPD12013] | > 85% | 100 to 500 nM | 100 to 500 nM
16 | COc1cc2c(Oc3ccc(NC(=O)C4(C(=O)Nc5ccc(F)cc5)CC4)cc3)ccnc2cc1N1CCC(CN2CCN(CCNc3nccc4c3CN(C3CCC(=O)NC3=O)C4=O)C(=O)C2)CC1 (stereo not drawn) [TPD12068] | 65 to 75% | ≤ 100 nM | ≤ 100 nM
17 | COc1cc2c(Oc3ccc(NC(=O)C4(C(=O)Nc5ccc(F)cc5)CC4)cc3)ccnc2cc1N1CCC(CN2C3CC2CN(CCNc2cc4c(cn2)C(=O)N(C2CCC(=O)NC2=O)C4)C3)CC1 (stereo not drawn) [TPD12081] | 75 to 85% | ≤ 100 nM | ≤ 100 nM
18 | COc1cc2c(Oc3ccc(NC(=O)C4(C(=O)Nc5ccc(F)cc5)CC4)cc3)ccnc2cc1N1CCC(CN2CC3CC(C2)N3CCNc2cc3c(cn2)C(=O)N(C2CCC(=O)NC2=O)C3)CC1 (stereo not drawn) [TPD12082] | 65 to 75% | ≤ 100 nM | 100 to 500 nM
19 | COc1cc2c(Oc3ccc(NC(=O)C4(C(=O)Nc5ccc(F)cc5)CC4)cc3)ccnc2cc1N1CCC(CN2C3CC2CN(CC(=O)Nc2cc4c(cn2)C(=O)N(C2CCC(=O)NC2=O)C4)C3)CC1 (stereo not drawn) [TPD12083] | 65 to 75% | ≤ 100 nM | ≤ 100 nM
20 | O=C1CCC(N2Cc3cc(NCCN4C5CC4CN(CC4CCN(c6cc7nccc(Oc8ccc(NC(=O)C9(C(=O)Nc%10ccc(F)cc%10)CC9)cc8)c7cc6F)CC4)C5)ncc3C2=O)C(=O)N1 (stereo not drawn) [TPD12086] | 75 to 85% | ≤ 100 nM | 100 to 500 nM
21 | O=C1CCC(N2Cc3cc(NC(=O)CN4C5CC4CN(CC4CCN(c6cc7nccc(Oc8ccc(NC(=O)C9(C(=O)Nc%10ccc(F)cc%10)CC9)cc8)c7cc6F)CC4)C5)ncc3C2=O)C(=O)N1 (stereo not drawn) [TPD12088] | 65 to 75% | ≤ 100 nM | 100 to 500 nM
